Assays:
[1] = cited from earlier work
laboratory beagle dogs = assay: Repeat dose tolerability: clinical observations, hematology, serum chemistry, coagulation, urinalysis; type: in vivo
Procedure: (§1) Laboratory Beagle dogs (Charles River Labs, Mattawan, MI) served as surrogates in testing compounds proposed for application in canine clinical cancer care. The animals were at least six months old and weighed 6.4–8.8 kg at the initiation of study. They had routine veterinary care and had not been used in any previous studies. The study was conducted in AAALAC-accredited animal facilities [Charles River Laboratories, Inc., Mattawan, MI; NIH Office of Laboratory Animal Welfare Assurance approval (https://olaw.nih.gov/assured/app/index.html)], under review, monitoring, and approval of the facility's Institutional Animal Care and Use Committee according to U.S. Public Health Service national guidelines and regulations for the care and use of laboratory animals. The study was not designed to incorporate Good Laboratory Practices (GLP) regulatory criteria. Animals on study were monitored daily or more frequently and body weights were recorded, while periodic specimens were obtained for laboratory analyses. Clinical pathology analyses were included for hematology, serum chemistry, coagulation, urinalysis, and chemical bioanalysis was accomplished for pharmacokinetics (PK) (Table 1, repeat dose study) (Charles River Laboratories, Mattawan, MI).
(§2) Six male and six female beagle dogs were enrolled in a parallel, three-arm, fixed, repeat oral-dose study. […] All dogs were dosed on study day 1 to obtain single dose PK samples, and then dosed serially days 4–20. Dogs were fasted overnight prior to dosing and fed ad libitum 2 h (hrs) following dose administration.
On days 10 and 15, a 2-h post-dose sample was collected. […] Treatment schedule and clinical pathology specimen sampling intervals are outlined in Table 1. […]
Sampling for hematology, serum chemistry, coagulation and urinalysis was conducted to facilitate monitoring treatment effects over various time points, and values obtained were compared to pre-treatment measurements for each subject (Table 1).

cytochrome P450 CYP3A4 = conditions: cited from earlier work
[2] = Plasma pharmacokinetics after single and repeat oral dose, LC-MS/MS, non-compartmental analysis; type: in vivo, Beagle dogs; conditions: for Tmax: TMAX (trametinib in plasma), median (range)
Procedure: as §1
as §2, with “study. […] In Group 2, two male (23001, 23002) and two female (23501, 23502) dogs were given sapanisertib alone (0.1 mg/kg) every other day (p.o., QOD).” for “study.”
Plasma samples for PK were collected at pre-dose (-7 days), then beginning day 1 following the initial dose of each study group at 1, 2, 4, 8, 24, 48, and 72 h. On day 6, plasma samples were collected pre-dose, then 1, 2, 4, 8, and 24 h post-dose. On days 10 and 15, a 2-h post-dose sample was collected. On day 20, plasma samples were drawn at pre-dose and 1, 2, 4, 8, 24, 48, and 72 h post-dose. Treatment schedule and clinical pathology specimen sampling intervals are outlined in Table 1.
(§3) Each 50 μL aliquot of known concentration standards, quality control sample, or study sample was mixed with 200 μL of working internal standard solution (10 ng/mL in acetonitrile). The samples were vortexed and centrifuged. A 150 μL aliquot of the resulting supernatant was transferred to a clean 96-well plate, evaporated, and reconstituted with 100 μL of water/acetonitrile (40/60, v/v). An aliquot was injected onto an LC-MS/MS XBridge BEH C18 liquid chromatography system (Waters Associates, Framingham, MA) having 50 x 2.1 mm (2.5 μm particle size) column with an isocratic flow consisting of water/formic acid (100/0.1, v/v) and acetonitrile/formic acid (100/0.1, v/v) at a flow rate of 0.3000 mL/min for analysis. The analyte and internal standard were detected using an API 6500+ triple quadrupole LC-MS/MS system (AB Sciex, LLC, Framingham, MA) equipped with an ESI (TurboIonSpray®) ionization source operated in the positive ion mode.
A non-compartmental approach to PK analysis was employed using Phoenix WinNonlin v8.3 (Certara Corp, Cary, NC) that was validated per FDA 21CFR Part 11 regulations. The maximum plasma concentration (CMAX) and the time of maximum plasma concentration (TMAX) were recorded as observed values. […] AUCINF (the AUC from time zero to infinity) was calculated by extrapolation by dividing CLAST (the last measurable drug concentration) by the rate constant of the terminal phase, λZ. This constant was determined from the slope of the terminal phase of the concentration-time curve using uniformly-weighted least-squares as the estimation procedure and acceptance criteria of (i) adjusted r^2 > 0.8, (ii) includes > 3 time points in the terminal phase occurring after the TMAX. […]

[3] = design: method as in PMID 32943547; conditions: combination with sapanisertib, p <0.001; cited from earlier work
[4] = Pilot single oral dose plasma trametinib concentrations (initial formulation); type: in vivo; conditions: fasted dogs
Procedure: as §3
These analytical findings, even under animal fasting conditions, were independently verified at the NCI Clinical Pharmacology Program. […] Consequently, trametinib was reformulated for this study by […] with equimolar dimethyl sulfoxide (DMSO) (Wedgewood Pharmacy, Swedesboro, NJ), consistent with the human formulation ([…]®, Novartis), and used for all subsequent evaluations. […]

[5] = ref MEKINIST Prescribing Information

CC(=O)Nc1cccc(-n2c(=O)n(C3CC3)c(=O)c3c(Nc4ccc(I)cc4F)n(C)c(=O)c(C)c32)c1 [Trametinib, trametinib dimethyl sulfoxide]
Trametinib accumulation upon repeat daily dosing in humans [1]: up to six-fold
Clearance of trametinib in humans [1, 5]: 1.2 mL/min/kg
Distribution volume of trametinib in humans [1, 5]: 3.1 L/kg
Dogs with minimal to marked increases in urine protein concentration (laboratory beagle dogs; Day 25, greater than pre-study values, 4 dogs per group): one male dog
Urine protein concentration, highest value (up to) (laboratory beagle dogs; Day 25, semi-quantitatively by urine dipstick): ≥ 1,000 mg/dL
Globulin concentration, times pre-study (up to) (laboratory beagle dogs; Days 7, 20, and/or 25): up to 1.45 x
Serum phosphorus concentrations, times pre-study (as low as) (laboratory beagle dogs; Days 7 and 20, both sexes in all groups): ≥ 0.74 x
Individual animal fibrinogen concentration, times pretreatment (up to) (laboratory beagle dogs; various time points, most pronounced in Group 3): up to 2.61 x
Induction of cytochrome P450 CYP3A4 (cytochrome P450 CYP3A4): known inducer
CMAX or AUC, male versus female dogs ([2]; Mann-Whitney, p > 0.05): absence of significant differences
Cmax ([2]; both, beagle, dog, plasma, po, […], CMAX (trametinib in plasma), First dose (Day 1), trametinib […] p.o., alone or with sapanisertib 0.1 mg/kg (see label), arithmetic mean (%CV), n = 4): 0.64 ng/mL
half-life ([2]; both, beagle, dog, plasma, po, […], T1/2 (trametinib in plasma), Steady-state (Day 20), trametinib […] p.o. q.d., mean (%CV), one subject of the trametinib-alone group excluded): 58.8 h
Tmax ([2]; both, beagle, dog, plasma, po, […], First dose (Day 1), trametinib […] p.o., n = 4): 1.5 h
Tmax ([2]; both, beagle, dog, plasma, po, […], Steady-state (Day 20), trametinib […] p.o. q.d., n = 4): 2 h
Trametinib AUC in mice during combination treatment [3]: significantly increased

CC(=O)Nc1cccc(-n2c(=O)n(C3CC3)c(=O)c3c(Nc4ccc(I)cc4F)n(C)c(=O)c(C)c32)c1 [trametinib, as initially formulated, trametinib]
Plasma trametinib concentration after single oral dose ([4]; 0.06 or 0.03 mg/kg, inconsistent, frequently below assay detection limit, for each dose one of two dogs below detection): < 0.1 ng/mL
Time to detection of trametinib in plasma post dose ([4]; single oral dose 0.06 or 0.03 mg/kg): ≥ 24 h

Reference: publication PMC9794608 (Frontiers in Veterinary Science, 2022)
